Patent US20100190795A1, “BETULIN DERIVED COMPOUNDS USEFUL AS ANTIPROTOZOAL AGENTS” (Valtion Teknillinen tutkimuskeskus, priority 2006, published 2010)

Test system: Leishmania
Experiment: Alamar Blue determination of activity against Leishmania (single concentration and GI50)
Assay type: cell-based, Leishmania donovani, L. tropica
Settings: for activity against leishmaniasis: statement in words in the description; for inhibition at 50 µM: Leishmania, compound concentration 50 µM; for GI50: concentrations between 50 and 0.01 μM
Experimental: Leishmania donovani MHOM/SD/1962/1S-012D and L. tropica MHOM/IS/1990/LRC-L590 protozoa were used in the tests.
Promastigotes were grown in a broth containing Medium-199 (Sigma, St. Louis, Mo.) supplemented with 2 mM L-glutamine, 100 μM adenosine, 23 μM folio acid, antibiotics (100 IU penicillin G and 100 μg/ml streptomycin), 1×BME vitamin mixture, 25 mM 2-(N-morpholin)ethanesulfonic acid (MES), 4.2 mM NaHCO3 and heat treated fetal calf serum (FCS, 10% v/v), pH being adjusted to 6.8, Promastigotes were grown at 26° C.
Axenic amastigotes of L. donovani were grown according to the procedure presented by Debrabant et al., 2004, in the RPMI 1640 broth containing 20% v/v of fetal calf serum (FCS), at 37° C., pH 5.5, Axenic amastigotes of L. tropica were grown as described for L. donovani with the exception that only 10% v/v FCS was used, at 36° C. without CO2.
Each dilution with the desired concentration of the parasite was dispensed as three parallel samples (250 μl/well) to a 96 well microtiter plate having a flat bottom (NUNC, Denmark), followed by the addition of Alamar Blue reagent (25 μl/well, ENCO). The plates were read (λcm=544 nm; λex2=590 nm) after following incubation times (3, 9, 24, 48 and 72 h) using a fluorescence microtiter plate reader (Fluoroskan, Ascent Fla., Finland).
Activity of the compounds was tested both for L. donovani and L. tropica species. Promastigotes (2×10^6 cells/ml) or axenic amastigotes (5.0×10^5 cells/ml) were introduced as three parallel samples (125 μl/well) to 96 well microtiter plates having flat bottoms, the wells containing each compound diluted in the cultivation broth (125 with final concentration of DMSO of 1%), Initially, the concentration of the compounds was […]. Amphotericin B (1 μM) was included as positive control (Sigma, St. Louis, Mo.), Broth containing DMSO was used as negative control. The parasites were tested either with or without the compounds by incubating at 26° C. (promastigotes), at 36° C. (axenic amastogotes of L. tropica) or at 37° C. (axenic amastogotes of L. donovani). After 24 hours, the Alamar Blye reagent (25 μl/well) was added, the plates were still incubater for 24 hours, followed by fluorescence determination. GI50 assay was carried out using the same procedure, the concentrations of the compounds to be tested ranging, however, between 50 and 0.01 μM.
Testing of the compounds was carried out as described in example 32.

[1] = Table 4, 24 h, then Alamar Blue 24 h, fluorescence, species and stage not given
[2] = Table 5, tested as in example 32, species and stage not stated

| Molecule | Inhibition of Leishmania (%) [1] [%] | Inhibition of Leishmania (%) [2] [%] | further results |
| --- | --- | --- | --- |
| 28-carboxymethoxy mentholester of betulin [betulin 28-carboxymethoxy mentholester] | 16.6 |  |  |
| C=C(C)[C@@H]1CC[C@]2(CO)CC[C@]3(C)[C@H](CC[C@@H]4[C@@]5(C)CC=CC(C)(C)[C@@H]5CC[C@]43C)[C@@H]12 [2,3-didehydro-3-deoxybetulin, reference compound] | 13.2 |  |  |
| CC(C)[C@@H]1CC[C@]2(C(=O)O)CC[C@]3(C)[C@H](CC[C@@H]4[C@@]5(C)CCC(=O)C(C)(C)[C@@H]5CC[C@]43C)[C@@H]12 [20,29-hydrobetulonic acid, 20,29-dihydrobetulonic acid] | 73.4 |  |  |
| C=C(C)[C@@H]1CC[C@]2(COC(=O)c3ccccc3NC(C)=O)CC[C@]3(C)C(CCC4[C@@]5(C)CC[C@H](O)C(C)(C)C5CC[C@]43C)C12 (stereo partly shown) [28-N-acetylanthranilic acid ester of betulin] | 59.2 |  | activity against leishmaniasis: considerable activity |
| C=C(C)C1CCC2(COC(C)=O)CCC3(C)C(CCC4C5(C)CCC(=O)C(C)(C)C5CCC43C)C12 (stereo not shown) [28-acetate of betulonic alcohol] | 40.6 |  |  |
| C=C(C)C1CCC2(C(=O)NC(CC(=O)OC)C(=O)OC)CCC3(C)C(CCC4C5(C)CCC(=O)C(C)(C)C5CCC43C)C12 (stereo not shown) [28-aspartateamide dimethyl ester of betulonic acid] | 69.3 |  | activity against leishmaniasis: considerable activity |
| C=C(C)C1CCC2(C(=O)OC)CCC3(C)C(CCC4C5(C)CCC(=O)C(C)(C)C5CCC43C)C12 (stereo not shown) [28-methylester of betulonic acid] | 40.1 |  |  |
| C[C@@H]1[C@H](O)[C@@H](C)/C=C/C=C/C=C/C=C/C=C/C=C/C=C/[C@H](O[C@@H]2O[C@H](C)[C@@H](O)[C@H](N)[C@@H]2O)C[C@@H]2O[C@](O)(C[C@@H](O)C[C@@H](O)[C@H](O)CC[C@@H](O)C[C@@H](O)CC(=O)O[C@H]1C)C[C@H](O)[C@H]2C(=O)O [amphotericine B, Amphotericin B, reference compound] |  |  | Inhibition of Leishmania (%) (Table 4, positive control at 1 μM): 55.4%; Inhibition of Leishmania (%) (Table 5, positive control at 1 μM): 55.4% |
| C=C(C)[C@@H]1CC[C@]2(/C=N/O)CC[C@]3(C)[C@H](CC[C@@H]4[C@@]5(C)CC/C(=N\O)C(C)(C)[C@@H]5CC[C@]43C)[C@@H]12 [betulin 3,28-dioxime] | 72.4 |  |  |
| C=C(C)C1CCC2(C#N)CCC3(C)C(CCC4C5(C)CCC(=NOC(C)=O)C(C)(C)C5CCC43C)C12 (stereo not shown) [betulin 3-acetoxyoxime-28-nitrile] | 66.4 |  | activity against leishmaniasis: considerable activity |
| C=C(C)[C@@H]1CC[C@]2(COC(=O)C3C(C=C(C)C)C3(C)C)CC[C@]3(C)[C@H](CC[C@@H]4[C@@]5(C)CC[C@H](O)C(C)(C)[C@@H]5CC[C@]43C)[C@@H]12 (stereo partly shown) [betulin 28-chrysanthemate, 28-chrysanthemate of betulin] | 13.4 |  |  |
| C=C(C)[C@@H]1CC[C@]2(/C=N/O)CC[C@]3(C)[C@H](CC[C@@H]4[C@@]5(C)CC[C@H](O)C(C)(C)[C@@H]5CC[C@]43C)[C@@H]12 [betulin 28-oxime] | 66.8 |  |  |
| C=C(C)[C@@H]1CC[C@]2(CO)CC[C@]3(C)[C@H](CC[C@@H]4[C@@]5(C)CC[C@H](O)C(C)(C)[C@@H]5CC[C@]43C)[C@@H]12 [betulin, lup-20(29)-ene-3β,28-diol] |  |  | inhibition at 50 µM [1]: 35% |
| C=C(C)[C@@H]1CC[C@]2(C(=O)O)CC[C@]3(C)[C@H](CC[C@@H]4[C@@]5(C)CC[C@H](O)C(C)(C)[C@@H]5CC[C@]43C)[C@@H]12 [betulinic acid, reference compound] |  |  | inhibition at 50 µM [1]: 39.8% |
| C=C(C)[C@@H]1CC[C@]2(C=O)CC[C@]3(C)[C@H](CC[C@@H]4[C@@]5(C)CC[C@H](O)C(C)(C)[C@@H]5CC[C@]43C)[C@@H]12 [betulinic aldehyde, reference compound] |  |  | inhibition at 50 µM [1]: 65% |
| C=C(C)[C@@H]1CC[C@]2(C(=O)O)CC[C@]3(C)[C@H](CC[C@@H]4[C@@]5(C)CCC(=O)C(C)(C)[C@@H]5CC[C@]43C)[C@@H]12 [betulonic acid] | 97.6 |  | activity against leishmaniasis: considerable activity |
| C=C(C)[C@@H]1CC[C@]2(CO)CC[C@]3(C)[C@H](CC[C@@H]4[C@@]5(C)CCC(=O)C(C)(C)[C@@H]5CC[C@]43C)[C@@H]12 [betulonic alcohol] | 44.0 |  |  |

| Molecule | Inhibition of Leishmania (%) [1] [%] | Inhibition of Leishmania (%) [2] [%] | further results |
| --- | --- | --- | --- |
| C=C(C)[C@@H]1CC[C@]2(C=O)CC[C@]3(C)[C@H](CC[C@@H]4[C@@]5(C)CCC(=O)C(C)(C)[C@@H]5CC[C@]43C)[C@@H]12 [betulonic aldehyde, reference compound] | 46.2 |  |  |
| Dials-Alder adduct of 3β,28-diacetoxylupa-12,18-diene and p-chloro-4-phenylurazole |  | 27.3 |  |
| Diels-Alder adduct of 3β,28-diacetoxylupa-12,18-diene and 1,3-dioxol-5-ylurazole |  | 52.2 | activity against leishmaniasis: considerable activity |
| Diels-Alder adduct of 3β,28-diacetoxylupa-12,18-diene and 1-naphthylurazole |  | 57.7 | activity against leishmaniasis: considerable activity |
| Diels-Alder adduct of 3β,28-diacetoxylupa-12,18-diene and 4-benzoylurazole |  | 24.7 |  |
| Diels-Alder adduct of 3β,28-diacetoxylupa-12,18-diene and 4-methylurazole |  | 98.2 | GI50 (Table 5): 8.9 µM; activity against leishmaniasis: considerable activity |
| Diels-Alder adduct of 3β,28-diacetoxylupa-12,18-diene and 4-phenylurazole |  | 36.2 |  |
| Diels-Alder adduct of 3β,28-diacetoxylupa-12,18-diene and indan-5-yl urazole |  | 22.5 |  |
| Diels-Alder adduct of 3β,28-diacetoxylupa-12,18-diene and m-chloro-4-phenylurazole |  | 29.7 |  |
| Diels-Alder adduct of 3β,28-diacetoxylupa-12,18-diene and m-methoxy-4-phenylurazole |  | 43.5 |  |
| Diels-Alder adduct of 3β,28-diacetoxylupa-12,18-diene and m-nitroxy-4-phenylurazole |  | 29.5 |  |
| Diels-Alder adduct of 3β,28-diacetoxylupa-12,18-diene and p-acetoxy-4-phenylurazole |  | 44.7 |  |
| Diels-Alder adduct of 3β,28-diacetoxylupa-12,18-diene and p-fluoro-4-phenylurazole |  | 47.8 |  |
| Diels-Alder adduct of 3β,28-diacetoxylupa-12,18-diene and urazole |  | 87.6 | GI50 (Table 5): 25.5 µM; activity against leishmaniasis: considerable activity |
| Diels-Alder adduct of lupa-12,18-diene and 4-methylurazole |  | 50.0 |  |
| Diels-Alder adduct of lupa-12,18-diene and 4-phenylurazole |  | 47.5 |  |
| betulin 28-acetic acid methyl ester [betulin 28-acetic acid methylester] |  |  | Inhibition of Leishmania (%) (Table 4, compound concentration, 24 h, then Alamar Blue 24 h, fluorescence, species and stage not given): 95.3%; activity against leishmaniasis: considerable activity |
